These results are taken from patent US6458580B1, “Fungal sulphur source and method of using the same” (Commonwealth Scientific and Industrial Research Organisation, priority 1997, dated 2002).

Values joined by “and” are separate entries in the source; they are usually repeats but may differ in a detail not shown here. Equal entries are not always repeated.

One experiment concerns Cellutolytic Bacteria. The experiment can be described thus: Effect of infusion on cellulolytic bacteria in rumen fluid (most probable number). It counts as in vivo. On the set-up: Cellutolytic Bacteria, MPA: unit not given here. Particulars: individual sheep and Aver. n = 13; for Cellutolytic Bacteria, MPA: MPA infused at 192 mg Sulphur/sheep/day; for Cellutolytic Bacteria, log (+): versus control period. As to the method:
Feed was prepared as previously described (see example 4). Initially 22 sheep were fed 1 kg of alkali straw/day in the animal house for 4 days to select out sheep not eating the diet. 19 sheep were weighted and transferred to metabolism cages and feed the alkali straw diet ad-lib. Sheep were fed and on the following day the feed refusal weighted and if less then 100 g remained a further 100 g was fed; if 100-200g of feed remained the sheep was given the same amount of feed; if over 200 g of feed was left the sheep was given 100 g less feed. Over the following week another 6 sheep were moved out of the experiment (usually due to very low or erratic intakes). […] After 14 days infusion the collection period of 7 days commenced. At the end of the collection period samples of rumen digesta were taken for microbiology and other analyses. Rumen fluid was collected and fungal zoospores and total bacteria assessed as described in example 4 (the total bacteria were assessed on the same medium but without antibiotics). Cellulolytic bacteria were assessed by a most probable number count. Rumen fluid was serially diluted and subsamples of each dilution inoculated into 5 culture tubes containing an anaerobic medium containing rumen fluid and strips of filter paper. After incubation the presence of cellulolytic bacteria was detected by degradation of the paper and the numbers of positive tubes compared to tables to give a number of these bacteria in the original sample. Following the last sampling the infusion was stopped in the first group of sheep and on the following day the infusion treatment was begun in the other group of seven sheep. The second period (the crossover) was conducted in the same way as the first period with the same samples being taken at the same times.

A further experiment relates to rumen fungi. Description: Effect of different intra-ruminal doses on fungal zoospore numbers in the rumen. Type of experiment: in vivo, sheep. As to the method:
Six cross-bred sheep [[…]] having rumen cannula were moved metabolism cages equipped with automatic feeders. They were given eight equal buckets of feed a day (three hourly) and offered water ad-lib. The sheep were offered 1.1 kg of a low sulphur feed (see below). After a period of three weeks on the diet rumen digesta was collected and rumen fluid (150 ml)was taken for zoospore counts. (An extra 100 ml of rumen digest was taken from each animal combined and mixed and 100 ml returned to each rumen to minimise differences between animals.) Zoospores were assessed by standard methods for handling anaerobic fungi. Serial dilutions of rumen fluid were prepared using an anaerobic diluent. Agar roll tubes were inoculated using a syringe with 0.2 ml of either a dilution of rumen fluid or undiluted rumen fluid. The media used was one mimicking the rumen environment but without added rumen fluid and with antibiotics (penicillin and streptomycin) added to stop overgrowth by rumen bacteria. After incubation the number of thallus forming units were counted and the number of zoospores in the rumen fluid calculated. […] The sheep were initially infused at the rate of 0.4 mMoles sulphur per day per 4 liters (ie 0.1 mM in rumen) This was equivalent to 12.67 mg Sulphur/day. The same protocols were used with successively higher doses. […] Each infusion was for one weeks before sampling rumen fluid and infusing the higher dose. […] Wheat straw was milled and approximately 40 kg quantities were transferred from the Gell feed mill to a mixer where 4 l of 40% NaOH was added while mixing. The feed was bagged (approximately two bags per 40 kg) and left for several days before a minerals mix was added. Two bags were placed in the mixer and the compounds in Table 3 were added. Trace elements were made up in 140 ml in water and were added to the urea which was previously dissolved in 25 Liters of water. This solution was then added to two bags of alkali treated feed while mixing. The remaining dry chemicals were mixed and the appropriate amount added (1.638 kg) onto the mixing feed. […]

`O=C(O)CCS` [MPA, 3-mercaptopropanoic acid]: in the experiment with Cellutolytic Bacteria, the “Cellutolytic Bacteria, MPA” value is 6.96 × 10^8 and 0.556 × 10^8 and 4.42 × 10^8 and 1.84 × 10^8 and 2.173 × 10^8 and 3.447 × 10^8 and 1.086 × 10^8 and 0.912 × 10^8 and 3.219 × 10^8 (3×) and 18.37 × 10^8 and 3.22 × 10^8; the “Cellutolytic Bacteria, log (+)” value was 0.58 log and −0.52 log and 0.38 log and −0.24 log (2×) and 0.07 log and 0.50 log and 0.12 log and 1.76 log and 0.76 log and 1.00 log and 0.62 log and 0.47 log. In the experiment with Cellutolytic Bacteria (mean), the “Cellutolytic Bacteria, MPA” value is on record as 4.05 × 10^8 and the “Cellutolytic Bacteria, log (+)” value is 0.40 log. Also, the levels of fungi result in the experiment with rumen fungi (dose of 0.75 mM (95 mg S/day), four of the six animals) is given as “≈ 1000 /ml”. For the same compound, the “optimum level of MPA” value with rumen fungi (rumen concentration, 190 mg S/day, very low S content diet) worked out at 1.5 mM. Moreover, the “relation between concentration of MPA in the rumen and numbers of zoospores in rumen fluid” value in the experiment on rumen fungi (sheep on low sulphur diet (0.052% sulphur), 0-5.0 mM in rumen, seven days per dose, FIG. 3) is “clear dose response”.
